Results: paper PMC12888861, “Antibacterial activity of enmetazobactam against Acinetobacter spp.: a molecular dissection of mechanism of action and resistance determinants” (Antimicrobial Agents and Chemotherapy, 2025)
Read-outs that look alike come from different tables or passages of the source.

Tested on: A. non-baumannii isolates (n = 87)
Assay: MIC, broth microdilution (EUCAST), A. non-baumannii isolates
Assay type: cell-based, Acinetobacter spp. (non-baumannii)
Settings: for MIC: in combinations ETZ fixed at 8 mg/L
Text: The bacterial strains used in this study comprised 208 clinical isolates from the Spanish National Acinetobacter spp. 2020 Multicenter Collection, which was previously characterized in detail by our research group, including whole-genome sequencing, phylogenetics studies, clonal dynamics, and resistance mechanisms ([2], [29]). Additionally, a collection of A. baumannii ATCC 17978 transformants coding the blaOXA-23, blaOXA-24/40, blaOXA-51, blaOXA-58, blaOXA-143, and blaOXA-201 genes, previously constructed and described by our group ([30]), was used to determine the activity of enmetazobactam against strains carrying the main CHDLs of A. baumannii.
The antimicrobial susceptibility of the 208 Acinetobacter spp. isolates was assessed using the broth microdilution method, as described in the European Committee on Antimicrobial Susceptibility Testing (EUCAST) v.15 guidelines (http://www.eucast.org/clinical_breakpoints). […] MICs for enmetazobactam alone were assessed as well. […] Subsequently, MIC testing was also conducted with a collection of A. baumannii ATCC 17978 transformants expressing clinically relevant OXA-like carbapenemase genes.
The A. baumannii ATCC 19606 strain was used as the reference strain in all susceptibility experiments, in duplicate assays. Antibiotics were purchased from Sigma-Aldrich, except enmetazobactam and durlobactam, which were obtained from Advanz Pharma and MedChemExpress, respectively.

[1] = Acinetobacter, A. non-baumannii isolates (n=87), ETZ fixed 8 mg/L in combinations
[2] = […], ETZ fixed 8 mg/L in combinations

CO/N=C(\C(=O)N[C@@H]1C(=O)N2C(C(=O)[O-])=C(C[N+]3(C)CCCC3)CS[C@H]12)c1csc(N)n1 [cefepime]
MIC distribution 0.12: 1.1
MIC (Acinetobacter baylyi, isolate NO-Ab27, Acinetobacter baylyi, read-out: MIC): 0.5 µg/mL
MIC (Acinetobacter beijerinckii, isolate NO-Ab122, Acinetobacter beijerinckii, read-out: MIC): 2 µg/mL
MIC (Acinetobacter bereziniae, isolate NO-Ab70, Acinetobacter bereziniae, read-out: MIC): 1 µg/mL
MIC (Acinetobacter bereziniae, isolate NO-Ab84, Acinetobacter bereziniae, read-out: MIC): 1 µg/mL
MIC (Acinetobacter bereziniae, isolate NO-Ab104, Acinetobacter bereziniae, read-out: MIC): 0.5 µg/mL
MIC (Acinetobacter bereziniae, isolate NO-Ab114, Acinetobacter bereziniae, read-out: MIC): 1 µg/mL
MIC (Acinetobacter bereziniae, isolate NO-Ab115, Acinetobacter bereziniae, read-out: MIC): 1 µg/mL
MIC (Acinetobacter bereziniae, isolate NO-Ab116, Acinetobacter bereziniae, read-out: MIC): 1 µg/mL
MIC (Acinetobacter bereziniae, isolate NO-Ab117, Acinetobacter bereziniae, read-out: MIC): 4 µg/mL
MIC (Acinetobacter bereziniae, isolate NO-Ab129, Acinetobacter bereziniae, read-out: MIC): 1 µg/mL
MIC (Acinetobacter bereziniae, isolate NO-Ab156, Acinetobacter bereziniae, read-out: MIC): 1 µg/mL
MIC (Acinetobacter calcoaceticus, isolate NO-Ab85, Acinetobacter calcoaceticus, read-out: MIC): 4 µg/mL
MIC (Acinetobacter calcoaceticus, isolate NO-Ab94, Acinetobacter calcoaceticus, read-out: MIC): 2 µg/mL
MIC (Acinetobacter calcoaceticus, isolate NO-Ab108, Acinetobacter calcoaceticus, read-out: MIC): 4 µg/mL
MIC (Acinetobacter calcoaceticus, isolate NO-Ab161, Acinetobacter calcoaceticus, read-out: MIC): 4 µg/mL
MIC (Acinetobacter calcoaceticus, isolate NO-Ab198, Acinetobacter calcoaceticus, read-out: MIC): 4 µg/mL
MIC (Acinetobacter calcoaceticus, isolate NO-Ab205, Acinetobacter calcoaceticus, read-out: MIC): 4 µg/mL
MIC (Acinetobacter calcoaceticus, isolate NO-Ab211, Acinetobacter calcoaceticus, read-out: MIC): 2 µg/mL
MIC (Acinetobacter courvalinii, isolate NO-Ab216, Acinetobacter courvalinii, read-out: MIC): 1 µg/mL
MIC (Acinetobacter dispersus, isolate NO-Ab2, Acinetobacter dispersus, read-out: MIC): 0.5 µg/mL
MIC (Acinetobacter guillouiae, isolate NO-Ab69, Acinetobacter guillouiae, read-out: MIC): 2 µg/mL
MIC (Acinetobacter guillouiae, isolate NO-Ab74, Acinetobacter guillouiae, read-out: MIC): 2 µg/mL
MIC (Acinetobacter haemolyticus, isolate NO-Ab92, Acinetobacter haemolyticus): 2 µg/mL
MIC (Acinetobacter haemolyticus, isolate NO-Ab177, Acinetobacter haemolyticus): 1 µg/mL
MIC (Acinetobacter haemolyticus, isolate NO-Ab217, Acinetobacter haemolyticus): 2 µg/mL
MIC (Acinetobacter johnsonii, isolate NO-Ab101, Acinetobacter johnsonii, read-out: MIC): 4 µg/mL
MIC (Acinetobacter junii, isolate NO-Ab76, Acinetobacter junii, read-out: MIC): 0.5 µg/mL
MIC (Acinetobacter junii, isolate NO-Ab77, Acinetobacter junii, OXA-24/40, read-out: MIC): 1 µg/mL
MIC (Acinetobacter lactucae, isolate NO-Ab60, Acinetobacter dijkshoorniae, read-out: MIC): 2 µg/mL
MIC (Acinetobacter lactucae, isolate NO-Ab63, Acinetobacter dijkshoorniae, read-out: MIC): 2 µg/mL
MIC (Acinetobacter lactucae, isolate NO-Ab65, Acinetobacter dijkshoorniae, read-out: MIC): 2 µg/mL
MIC (Acinetobacter lactucae, isolate NO-Ab86, Acinetobacter dijkshoorniae, read-out: MIC): 1 µg/mL
MIC (Acinetobacter lactucae, isolate NO-Ab88, Acinetobacter dijkshoorniae, read-out: MIC): 2 µg/mL
MIC (Acinetobacter lactucae, isolate NO-Ab91, Acinetobacter dijkshoorniae, read-out: MIC): 2 µg/mL
MIC (Acinetobacter lactucae, isolate NO-Ab121, Acinetobacter dijkshoorniae, read-out: MIC): 4 µg/mL
MIC (Acinetobacter lactucae, isolate NO-Ab125, Acinetobacter dijkshoorniae, read-out: MIC): 2 µg/mL
MIC (Acinetobacter lactucae, isolate NO-Ab160, Acinetobacter dijkshoorniae, read-out: MIC): 0.5 µg/mL
MIC (Acinetobacter nosocomialis, isolate NO-Ab43, Acinetobacter nosocomialis, read-out: MIC): 2 µg/mL
MIC (Acinetobacter nosocomialis, isolate NO-Ab68, Acinetobacter nosocomialis, OXA-24/40, read-out: MIC): 4 µg/mL
MIC (Acinetobacter nosocomialis, isolate NO-Ab98, Acinetobacter nosocomialis, read-out: MIC): 2 µg/mL
MIC (Acinetobacter nosocomialis, isolate NO-Ab208, Acinetobacter nosocomialis, read-out: MIC): 2 µg/mL
MIC (Acinetobacter pittii, isolate NO-Ab59, Acinetobacter pittii, read-out: MIC): 2 µg/mL
MIC (Acinetobacter pittii, isolate NO-Ab66, Acinetobacter pittii, read-out: MIC): 8 µg/mL
MIC (Acinetobacter pittii, isolate NO-Ab73, Acinetobacter pittii, read-out: MIC): 2 µg/mL
MIC (Acinetobacter pittii, isolate NO-Ab75, Acinetobacter pittii, read-out: MIC): 4 µg/mL
MIC (Acinetobacter pittii, isolate NO-Ab78, Acinetobacter pittii, read-out: MIC): 1 µg/mL
MIC (Acinetobacter pittii, isolate NO-Ab82, Acinetobacter pittii, read-out: MIC): 1 µg/mL
MIC (Acinetobacter pittii, isolate NO-Ab89, Acinetobacter pittii, read-out: MIC): 1 µg/mL
MIC (Acinetobacter pittii, isolate NO-Ab90, Acinetobacter pittii, read-out: MIC): 1 µg/mL
MIC (Acinetobacter pittii, isolate NO-Ab97, Acinetobacter pittii, read-out: MIC): 4 µg/mL
MIC (Acinetobacter pittii, isolate NO-Ab105, Acinetobacter pittii, read-out: MIC): 1 µg/mL
MIC (Acinetobacter pittii, isolate NO-Ab106, Acinetobacter pittii, read-out: MIC): 1 µg/mL
MIC (Acinetobacter pittii, isolate NO-Ab107, Acinetobacter pittii, read-out: MIC): 0.5 µg/mL
MIC (Acinetobacter pittii, isolate NO-Ab111, Acinetobacter pittii, read-out: MIC): 1 µg/mL
MIC (Acinetobacter pittii, isolate NO-Ab113, Acinetobacter pittii, read-out: MIC): 2 µg/mL
MIC (Acinetobacter pittii, isolate NO-Ab118, Acinetobacter pittii, read-out: MIC): 2 µg/mL
MIC (Acinetobacter pittii, isolate NO-Ab135, Acinetobacter pittii, read-out: MIC): 1 µg/mL
MIC (Acinetobacter pittii, isolate NO-Ab145, Acinetobacter pittii, read-out: MIC): 2 µg/mL
MIC (Acinetobacter pittii, isolate NO-Ab151, Acinetobacter pittii, read-out: MIC): 2 µg/mL
MIC (Acinetobacter pittii, isolate NO-Ab154, Acinetobacter pittii, read-out: MIC): 1 µg/mL
MIC (Acinetobacter pittii, isolate NO-Ab157, Acinetobacter pittii, read-out: MIC): 4 µg/mL
MIC (Acinetobacter pittii, isolate NO-Ab162, Acinetobacter pittii, read-out: MIC): 8 µg/mL
MIC (Acinetobacter pittii, isolate NO-Ab164, Acinetobacter pittii, read-out: MIC): 1 µg/mL
MIC (Acinetobacter pittii, isolate NO-Ab178, Acinetobacter pittii, read-out: MIC): 4 µg/mL
MIC (Acinetobacter pittii, isolate NO-Ab197, Acinetobacter pittii, read-out: MIC): 2 µg/mL
MIC (Acinetobacter proteolyticus, isolate NO-Ab99, Acinetobacter proteolyticus, read-out: MIC): 4 µg/mL
MIC (Acinetobacter proteolyticus, isolate NO-Ab102, Acinetobacter proteolyticus, read-out: MIC): 4 µg/mL
MIC (Acinetobacter proteolyticus, isolate NO-Ab210, Acinetobacter proteolyticus, read-out: MIC): 1 µg/mL
MIC (Acinetobacter radioresistens, isolate NO-Ab175, Acinetobacter radioresistens, read-out: MIC): 0.25 µg/mL
MIC (Acinetobacter radioresistens, isolate NO-Ab215, Acinetobacter radioresistens, read-out: MIC): 0.12 µg/mL
MIC (Acinetobacter ursingii, isolate NO-Ab3, Acinetobacter ursingii, read-out: MIC): 0.25 µg/mL
MIC (Acinetobacter ursingii, isolate NO-Ab64, Acinetobacter ursingii, read-out: MIC): 1 µg/mL
MIC (Acinetobacter ursingii, isolate NO-Ab87, Acinetobacter ursingii, read-out: MIC): 0.25 µg/mL
MIC (Acinetobacter ursingii, isolate NO-Ab103, Acinetobacter ursingii, read-out: MIC): 2 µg/mL
MIC (Acinetobacter ursingii, isolate NO-Ab119, Acinetobacter ursingii, read-out: MIC): 8 µg/mL
MIC (Acinetobacter ursingii, isolate NO-Ab120, Acinetobacter ursingii, read-out: MIC): 4 µg/mL
MIC (Acinetobacter ursingii, isolate NO-Ab123, Acinetobacter ursingii, read-out: MIC): 2 µg/mL
MIC (Acinetobacter ursingii, isolate NO-Ab126, Acinetobacter ursingii, read-out: MIC): 4 µg/mL
MIC (Acinetobacter ursingii, isolate NO-Ab147, Acinetobacter ursingii, read-out: MIC): 2 µg/mL
MIC (Acinetobacter ursingii, isolate NO-Ab155, Acinetobacter ursingii, read-out: MIC): 4 µg/mL
MIC (Acinetobacter ursingii, isolate NO-Ab165, Acinetobacter ursingii, read-out: MIC): 2 µg/mL
MIC (Acinetobacter ursingii, isolate NO-Ab166, Acinetobacter ursingii, read-out: MIC): 1 µg/mL
MIC (Acinetobacter ursingii, isolate NO-Ab214, Acinetobacter ursingii, read-out: MIC): 4 µg/mL
MIC (Acinetobacter ursingii, isolate NO-Ab221, Acinetobacter ursingii, read-out: MIC): 4 µg/mL
MIC (Acinetobacter ursingii, isolate NO-Ab222, Acinetobacter ursingii, read-out: MIC): 1 µg/mL
MIC (Acinetobacter, isolate NO-Ab146, Acinetobacter iwoffii, read-out: MIC): 2 µg/mL
MIC (Acinetobacter, isolate NO-Ab159, Acinetobacter iwoffii, read-out: MIC): 0.5 µg/mL
MIC50 [1]: 2 µg/mL
MIC90 [1]: 4 µg/mL
MIC distribution 0.25 [2]: 4.6
MIC distribution 0.5 [2]: 12.6
MIC distribution 1 [2]: 41.4
MIC distribution 2 [2]: 73.6
MIC distribution 4 [2]: 96.6
MIC distribution 8 [2]: 98.9
MIC distribution 16 [2]: 100
MIC distribution 32 [2]: 100
MIC distribution ≤0.06 [2]: 0
